From US11279708B2, “Amidino- and amino-rocaglates as novel translation inhibitors and anticancer agents” (priority 2019, dated 2022)

Molecular target: T1, eIF4A2:poly r(AG)8 RNA (Homo sapiens, UniProt Q14240)
T1 construct: His6 (N); made in house; host or cells: E. coli BL21 (DE3)
Test: fluorescence polarization (FP) assay, eIF4A2 binding to FAM-labelled RNA
Conditions: 10 μM CR-1-31-B
Description: Rocaglates similarly enhance RNA binding of eIF4A1 and eIF4A2. In order to rapidly evaluate the ability of rocaglates to stimulate binding of eIF4A to RNA, a fluorescence polarization (FP) assay using a FAM (fluorescein amidite)-labelled RNA probe (FIG. 18A) was used. […] Due to the high degree of shared amino acid identity between the two paralogs, their apparent similarity with respect to RNA binding activity and response to CR-1-31-B (23), and the fact that eIF4A1 is essential but eIF4A2 is not, eIF4A1 was used in the majority of our subsequent experiments.
Fluorescence Polarization (FP) Assays. Unless otherwise specified, eIF4A (500 nM) was incubated with 10 nM FAM-labelled RNA for 30 min in FP buffer (14.4 mM HEPES-NaOH (pH 8), 108 mM NaCl, 1 mM MgCl2, 14.4% glycerol, 0.1% DMSO, 2 mM DTT, 1 mM AMPPNP) at room temperature in black low volume 384 well plates (Corning 3820). FP readings were performed on a Pherastar FS microplate reader (BMG Labtech).
FIGS. 17A-17F. Assessment of eIF4A1 and eIF4A2 RNA binding specificity. 17A. Chemical structure of the most commonly used rocaglates in biological studies 17B. Coomassie blue staining of SDS-PAGE showing eIF4A1 and eIF4A2 preparations used herein. […]

T1 sequence (Q14240 whole entry, species assumed): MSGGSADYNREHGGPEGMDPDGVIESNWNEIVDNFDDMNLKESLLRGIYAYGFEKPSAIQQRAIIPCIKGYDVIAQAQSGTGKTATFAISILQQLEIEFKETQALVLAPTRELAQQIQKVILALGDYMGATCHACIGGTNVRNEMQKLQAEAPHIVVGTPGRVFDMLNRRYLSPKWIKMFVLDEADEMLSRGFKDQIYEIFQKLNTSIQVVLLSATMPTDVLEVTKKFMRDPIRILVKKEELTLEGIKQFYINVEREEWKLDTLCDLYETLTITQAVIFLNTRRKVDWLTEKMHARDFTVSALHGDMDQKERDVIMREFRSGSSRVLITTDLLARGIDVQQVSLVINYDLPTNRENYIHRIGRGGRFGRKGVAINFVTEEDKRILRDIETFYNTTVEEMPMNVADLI

CONC(=O)[C@H]1[C@@H](O)[C@@]2(O)c3c(OC)cc(OC)cc3O[C@@]2(c2ccc(OC)cc2)[C@@H]1c1ccccc1 [CR-1-31-B]
stimulation of eIF4A2:RNA binding (in words): equally stimulates binding of both eIF4A1 and eIF4A2
